Test results published in patent US20120270819A1, “USE OF COMPOUNDS WITH SGLT-1/SGLT-2 INHIBITOR ACTIVITY FOR PRODUCING MEDICAMENTS FOR TREATMENT OF BONE DISEASE” (SANOFI, priority 2009, published 2012).

System: female Sprague-Dawley mature and young adult rats
Experiment: Ex vivo peripheral quantitative computed tomography (pQCT) of right femur (metaphysis, diaphysis, length)
Assay type: in vivo, rat
Details: Mature Adults; for pQCT femur (diaphysis) CSMI / pQCT femur (diaphysis) Cortical Area / pQCT femur (diaphysis) Cortical BMC / pQCT femur (diaphysis) Cortical BMD / pQCT femur (diaphysis) Cortical Thickness / pQCT femur (diaphysis) Endosteal Circumference / pQCT femur (diaphysis) Periosteal Circumference / pQCT femur (diaphysis) Total Area / pQCT femur (diaphysis) Total BMC / pQCT femur (diaphysis) Total BMD / pQCT femur Length / pQCT femur metaphysis C/SC (Cortical/Subcortical) BMC / pQCT femur metaphysis C/SC (Cortical/Subcortical) BMD / pQCT femur metaphysis Total Area / pQCT femur metaphysis Total BMC / pQCT femur metaphysis Total BMD / pQCT femur metaphysis Trabecular BMC / pQCT femur metaphysis Trabecular BMD: mean
Experimental: The following were evaluated: clinical signs (at least weekly), body weight (weekly), food consumption (weekly), hormones (Days 13 and 27), serum and urinary biochemical markers of bone turnover (Days 13 and 27), serum chemistry (at necropsy), bone densitometry by dual energy X-ray absorptiometry (DXA) and peripheral quantitative computed tomography (pQCT) (Week 2 and 4, as well as ex vivo), macroscopic observations at necropsy, organ weights, histopathology, biomechanical strength testing and femoral length measurements.
3.2 Ex Vivo Peripheral Quantitative Computed Tomography (pQCT)
Peripheral QCT scans were performed ex vivo using an XCT Research SA or SA+ bone scanner with software version 5.50D. Scans were obtained for the right femur, L3 and L4 lumbar vertebra for all animals euthanized at the end of the treatment period as well as two found dead animals. These two animals were scanned twice due to technical oversight, however only the first scans obtained were reported and the second scans were kept with the study file, this had no impact on the study as both scans were considered equivalent.
For the femurs, the scanned site was at the expected 3-point bending fracture site (diaphysis). This site was analyzed using Cortmode 2 for cortical bone measurements only (Table 5). An additional slice was obtained in the metaphysis. The metaphysis scan was not performed for the femur of three animals due to condyles detachment from the femur during trimming.
The femoral length was measured as part of the ex vivo pQCT scanning procedures and was reported for the right femur of all animals with the exception of 3 animas due to damaged femoral condyles.
All analyses were performed using the LOOP option of the analysis software. All other data generated as a result of the LOOP option were retained with the raw data but not reported. The most appropriate analysis mode for the femur and the lumbar vertebrae was used and documented in the raw data and the analysis details are presented in Table 6. All scan analysis data was retained and re-analyses documented.

## COc1ccc(Cc2c(OC3OC(CO)C(F)C(O)C3O)n[nH]c2C(F)(F)F)cc1 (stereo not drawn) [Example 5 of formula II]
10 mg/kg/day
  pQCT femur (diaphysis) CSMI, percent difference from Vehicle Control: 5.7%
  pQCT femur (diaphysis) Cortical Area, percent difference from Vehicle Control: 2.3%
  pQCT femur (diaphysis) Cortical BMC, percent difference from Vehicle Control: 2.7%
  pQCT femur (diaphysis) Cortical BMD, percent difference from Vehicle Control: 0.5%
  pQCT femur (diaphysis) Cortical Thickness, percent difference from Vehicle Control: 0.6%
  pQCT femur (diaphysis) Endosteal Circumference, percent difference from Vehicle Control: 2.3%
  pQCT femur (diaphysis) Periosteal Circumference, percent difference from Vehicle Control: 1.0%
  pQCT femur (diaphysis) Total Area, percent difference from Vehicle Control: 3.1%
  pQCT femur (diaphysis) Total BMC, percent difference from Vehicle Control: 3.0%
  pQCT femur (diaphysis) Total BMD, percent difference from Vehicle Control: 0.1%
  pQCT femur Length, percent difference from Vehicle Control: −0.4%
  pQCT femur metaphysis C/SC BMC, percent difference from Vehicle Control: 6.2%
  pQCT femur metaphysis C/SC BMD, percent difference from Vehicle Control: 2.0%
  pQCT femur metaphysis Total Area, percent difference from Vehicle Control: 4.4%
  pQCT femur metaphysis Total BMC, percent difference from Vehicle Control: 7.8%
  pQCT femur metaphysis Total BMD, percent difference from Vehicle Control: 3.5%
  pQCT femur metaphysis Trabecular BMC, percent difference from Vehicle Control: 14.7%
  pQCT femur metaphysis Trabecular BMD, percent difference from Vehicle Control: 9.9%
  pQCT femur (diaphysis) CSMI: 5.0 mm^4
  pQCT femur (diaphysis) Cortical Area: 6.5 mm^2
  pQCT femur (diaphysis) Cortical BMC: 8.5 mg/mm
  pQCT femur (diaphysis) Cortical BMD: 1312.6 mg/cm^3
  pQCT femur (diaphysis) Cortical Thickness: 0.76 mm
  pQCT femur (diaphysis) Endosteal Circumference: 6.2 mm
  pQCT femur (diaphysis) Periosteal Circumference: 10.8 mm
  pQCT femur (diaphysis) Total Area: 9.6 mm^2
  pQCT femur (diaphysis) Total BMC: 9.1 mg/mm
  pQCT femur (diaphysis) Total BMD: 955.6 mg/cm^3
  pQCT femur Length: 37.0 mm
  pQCT femur metaphysis C/SC (Cortical/Subcortical) BMC: 10.1 mg/mm
  pQCT femur metaphysis C/SC (Cortical/Subcortical) BMD: 1054.0 mg/cm^3
  pQCT femur metaphysis Total Area: 16.0 mm^2
  pQCT femur metaphysis Total BMC: 12.6 mg/mm
  pQCT femur metaphysis Total BMD: 791.1 mg/cm^3
  pQCT femur metaphysis Trabecular BMC: 2.5 mg/mm
  pQCT femur metaphysis Trabecular BMD: 396.9 mg/cm^3
50 mg/kg/day
  pQCT femur (diaphysis) CSMI, percent difference from Vehicle Control: −3.0%
  pQCT femur (diaphysis) Cortical Area, percent difference from Vehicle Control: 0.2%
  pQCT femur (diaphysis) Cortical BMC, percent difference from Vehicle Control: 1.2%
  pQCT femur (diaphysis) Cortical BMD, percent difference from Vehicle Control: 1.0%
  pQCT femur (diaphysis) Cortical Thickness, percent difference from Vehicle Control: 3.5%
  pQCT femur (diaphysis) Endosteal Circumference, percent difference from Vehicle Control: −5.6%
  pQCT femur (diaphysis) Periosteal Circumference, percent difference from Vehicle Control: −2.1%
  pQCT femur (diaphysis) Total Area, percent difference from Vehicle Control: −3.4%
  pQCT femur (diaphysis) Total BMC, percent difference from Vehicle Control: 0.0%
  pQCT femur (diaphysis) Total BMD, percent difference from Vehicle Control: 3.5%
  pQCT femur Length, percent difference from Vehicle Control: −0.4%
  pQCT femur metaphysis C/SC BMC, percent difference from Vehicle Control: 4.0%
  pQCT femur metaphysis C/SC BMD, percent difference from Vehicle Control: 7.0%
  pQCT femur metaphysis Total Area, percent difference from Vehicle Control: −2.7%
  pQCT femur metaphysis Total BMC, percent difference from Vehicle Control: 5.1%
  pQCT femur metaphysis Total BMD, percent difference from Vehicle Control: 8.0%
  pQCT femur metaphysis Trabecular BMC, percent difference from Vehicle Control: 9.7%
  pQCT femur metaphysis Trabecular BMD, percent difference from Vehicle Control: 12.3%
  pQCT femur (diaphysis) CSMI: 4.6 mm^4
  pQCT femur (diaphysis) Cortical Area: 6.4 mm^2
  pQCT femur (diaphysis) Cortical BMC: 8.4 mg/mm
  pQCT femur (diaphysis) Cortical BMD: 1319.4 mg/cm^3
  pQCT femur (diaphysis) Cortical Thickness: 0.78 mm
  pQCT femur (diaphysis) Endosteal Circumference: 5.7 mm
  pQCT femur (diaphysis) Periosteal Circumference: 10.4 mm
  pQCT femur (diaphysis) Total Area: 9.0 mm^2
  pQCT femur (diaphysis) Total BMC: 8.8 mg/mm
  pQCT femur (diaphysis) Total BMD: 988.0 mg/cm^3
  pQCT femur Length: 37.0 mm
  pQCT femur metaphysis C/SC (Cortical/Subcortical) BMC: 9.9 mg/mm
  pQCT femur metaphysis C/SC (Cortical/Subcortical) BMD: 1105.5 mg/cm^3
  pQCT femur metaphysis Total Area: 14.9 mm^2
  pQCT femur metaphysis Total BMC: 12.3 mg/mm
  pQCT femur metaphysis Total BMD: 825.3 mg/cm^3
  pQCT femur metaphysis Trabecular BMC: 2.4 mg/mm
  pQCT femur metaphysis Trabecular BMD: 405.3 mg/cm^3
